Source: ChEMBL document CHEMBL1146703, “Mannopeptimycin esters and carbonates, potent antibiotic agents against drug-resistant bacteria” (2004)
≈ marks a conversion by molar mass, not a printed value.

Experiments:
Enterococcus faecalis [1] = assay: Antibacterial activity against Enterococcus faecalis; Range is 1-4; assay type: functional
Escherichia coli = assay: Antibacterial activity against Escherichia coli at </=64 ug/mL; No activity; assay type: functional, organism-based
Mus musculus = assay: Antibacterial activity against Staphylococcus aureus infection in mouse after i.v. administration (Vancomycin, ED50= 1.0 mg/kg ); assay type: functional; conditions: route intravenous
Staphylococcus aureus [2] = assay: Antibacterial activity against Staphylococcus aureus; Range is 0.5-1; assay type: functional
Enterococcus faecalis [3] = assay: Antibacterial activity against Enterococcus faecalis; Range is 4-8; assay type: functional
Staphylococcus aureus [4] = assay: Antibacterial activity against Staphylococcus aureus; Range is 1-2; assay type: functional
Enterococcus faecalis [5] = assay: Antibacterial activity against Enterococcus faecalis; Range is 16-64; assay type: functional
Staphylococcus aureus [6] = assay: Antibacterial activity against Staphylococcus aureus; Range is 4-8; assay type: functional
Enterococcus faecalis [7] = assay: Antibacterial activity against Enterococcus faecalis; Range is 1-2; assay type: functional
Enterococcus faecalis [8] = assay: Antibacterial activity against Enterococcus faecalis; Range is 8-16; assay type: functional
Staphylococcus aureus [9] = assay: Antibacterial activity against Staphylococcus aureus; Range is 2-8; assay type: functional
Enterococcus faecalis [10] = assay: Antibacterial activity against Enterococcus faecalis; Range is 4-32; assay type: functional
Staphylococcus aureus [11] = assay: Antibacterial activity against Staphylococcus aureus; assay type: functional
Enterococcus faecalis [12] = assay: Antibacterial activity against Enterococcus faecalis; Range is 64->64; assay type: functional
Staphylococcus aureus [13] = assay: Antibacterial activity against Staphylococcus aureus; Range is 8-16; assay type: functional
Enterococcus faecalis [14] = assay: Antibacterial activity against Enterococcus faecalis; Range is 4-16; assay type: functional
Staphylococcus aureus [15] = assay: Antibacterial activity against Staphylococcus aureus; Range is 0.5-2; assay type: functional
Staphylococcus aureus [16] = assay: Antibacterial activity against Staphylococcus aureus; Range is 2-4; assay type: functional

For CCCCCCC(=O)OC[C@H]1O[C@H](O[C@H]2[C@H](O)[C@H](O)[C@@H](Oc3ccc(C[C@H]4NC(=O)[C@H]([C@@H](C)c5ccccc5)NC(=O)CNC(=O)[C@H](CO)NC(=O)[C@@H]([C@@H](O)[C@@H]5CNC(N)N5[C@H]5O[C@H](CO)[C@@H](O)[C@H](O)[C@@H]5O)NC(=O)[C@H]([C@@H](O)[C@@H]5CNC(N)N5)NC4=O)cc3)O[C@@H]2CO)[C@@H](O)[C@@H](O)[C@@H]1O (some centres not stated), the MIC (Enterococcus faecalis [1]) was 4 µg/mL (≈ 2.83 µM), the MIC (Escherichia coli) was “No activity” and the ED50 (Mus musculus) was 4 mg/kg. The MIC (Staphylococcus aureus [2]) was 1 µg/mL (≈ 0.708 µM).

C[C@@H](c1ccccc1)[C@@H]1NC(=O)CNC(=O)[C@H](CO)NC(=O)[C@@H]([C@@H](O)[C@@H]2CNC(N)N2[C@H]2O[C@H](CO)[C@@H](O)[C@H](O)[C@@H]2O)NC(=O)[C@H]([C@@H](O)[C@@H]2CNC(N)N2)NC(=O)[C@@H](Cc2ccc(O[C@H]3O[C@H](COC(=O)C(c4ccccc4)c4ccccc4)[C@@H](O[C@H]4O[C@H](CO)[C@@H](O)[C@H](O)[C@@H]4O)[C@H](O)[C@@H]3O)cc2)NC1=O (some centres not stated) was tested, and the MIC (Enterococcus faecalis [3]) was 8 µg/mL (≈ 5.36 µM), the MIC (Escherichia coli) was “No activity” and the MIC (Staphylococcus aureus [4]) was 2 µg/mL (≈ 1.34 µM).

C[C@@H](c1ccccc1)[C@@H]1NC(=O)CNC(=O)[C@H](CO)NC(=O)[C@@H]([C@@H](O)[C@@H]2CNC(N)N2[C@H]2O[C@H](CO)[C@@H](O)[C@H](O)[C@@H]2O)NC(=O)[C@H]([C@@H](O)[C@@H]2CNC(N)N2)NC(=O)[C@@H](Cc2ccc(O[C@H]3O[C@H](COC(=O)OCc4ccccc4)[C@@H](O[C@H]4O[C@H](CO)[C@@H](O)[C@H](O)[C@@H]4O)[C@H](O)[C@@H]3O)cc2)NC1=O (some centres not stated) was tested, and the MIC (Enterococcus faecalis [5]) was 64 µg/mL (≈ 44.6 µM), the MIC (Escherichia coli) was “No activity” and the MIC (Staphylococcus aureus [6]) was 8 µg/mL (≈ 5.58 µM).

With CCCCCC(=O)OC[C@H]1O[C@H](O[C@H]2[C@H](O)[C@H](O)[C@@H](Oc3ccc(C[C@H]4NC(=O)[C@H]([C@@H](C)c5ccccc5)NC(=O)CNC(=O)[C@H](CO)NC(=O)[C@@H]([C@@H](O)[C@@H]5CNC(N)N5[C@H]5O[C@H](CO)[C@@H](O)[C@H](O)[C@@H]5O)NC(=O)[C@H]([C@@H](O)[C@@H]5CNC(N)N5)NC4=O)cc3)O[C@@H]2CO)[C@@H](O)[C@@H](O)[C@@H]1O (some centres not stated) the MIC (Enterococcus faecalis [3]) was 8 µg/mL (≈ 5.72 µM), the MIC (Escherichia coli) was “No activity” and the ED50 (Mus musculus) was 4 mg/kg. The MIC (Staphylococcus aureus [4]) was 2 µg/mL (≈ 1.43 µM).

For C[C@@H](c1ccccc1)[C@@H]1NC(=O)CNC(=O)[C@H](CO)NC(=O)[C@@H]([C@@H](O)[C@@H]2CNC(N)N2[C@H]2O[C@H](CO)[C@@H](O)[C@H](O)[C@@H]2O)NC(=O)[C@H]([C@@H](O)[C@@H]2CNC(N)N2)NC(=O)[C@@H](Cc2ccc(O[C@H]3O[C@H](CO)[C@@H](O[C@H]4O[C@H](COC(=O)C(c5ccccc5)c5ccccc5)[C@@H](O)[C@H](O)[C@@H]4O)[C@H](O)[C@@H]3O)cc2)NC1=O (some centres not stated), the MIC (Enterococcus faecalis [7]) was 2 µg/mL (≈ 1.34 µM), the MIC (Escherichia coli) was “No activity” and the ED50 (Mus musculus) was 0.29 mg/kg. It also gave an MIC (Staphylococcus aureus [2]) of 1 µg/mL (≈ 0.67 µM).

For C[C@@H](c1ccccc1)[C@@H]1NC(=O)CNC(=O)[C@H](CO)NC(=O)[C@@H]([C@@H](O)[C@@H]2CNC(N)N2[C@H]2O[C@H](CO)[C@@H](O)[C@H](O)[C@@H]2O)NC(=O)[C@H]([C@@H](O)[C@@H]2CNC(N)N2)NC(=O)[C@@H](Cc2ccc(O[C@H]3O[C@H](CO)[C@@H](O[C@H]4O[C@H](COC(=O)OCc5ccccc5)[C@@H](O)[C@H](O)[C@@H]4O)[C@H](O)[C@@H]3O)cc2)NC1=O (some centres not stated), the MIC (Escherichia coli) was “No activity”, the MIC (Enterococcus faecalis [8]) was 16 µg/mL (≈ 11.2 µM) and the MIC (Staphylococcus aureus [9]) was 8 µg/mL (≈ 5.58 µM).

CCCC(CCC)C(=O)OC[C@H]1O[C@H](Oc2ccc(C[C@H]3NC(=O)[C@H]([C@@H](C)c4ccccc4)NC(=O)CNC(=O)[C@H](CO)NC(=O)[C@@H]([C@@H](O)[C@@H]4CNC(N)N4[C@H]4O[C@H](CO)[C@@H](O)[C@H](O)[C@@H]4O)NC(=O)[C@H]([C@@H](O)[C@@H]4CNC(N)N4)NC3=O)cc2)[C@@H](O)[C@@H](O)[C@@H]1O[C@H]1O[C@H](CO)[C@@H](O)[C@H](O)[C@@H]1O (some centres not stated) was tested, and the MIC (Enterococcus faecalis [10]) was 32 µg/mL (≈ 22.4 µM), the MIC (Escherichia coli) was “No activity” and the MIC (Staphylococcus aureus [11]) was 4 µg/mL (≈ 2.81 µM).

CC(C)CC(=O)O[C@@H]1[C@@H](O[C@H]2[C@H](O)[C@H](O)[C@@H](Oc3ccc(C[C@H]4NC(=O)[C@H]([C@@H](C)c5ccccc5)NC(=O)CNC(=O)[C@H](CO)NC(=O)[C@@H]([C@@H](O)[C@@H]5CNC(N)N5[C@H]5O[C@H](CO)[C@@H](O)[C@H](O)[C@@H]5O)NC(=O)[C@H]([C@@H](O)[C@@H]5CNC(N)N5)NC4=O)cc3)O[C@@H]2CO)O[C@H](CO)[C@@H](O)[C@@H]1O (some centres not stated) was tested, and the MIC (Escherichia coli) was “No activity”, the MIC (Enterococcus faecalis [12]) was 64 µg/mL (≈ 46.3 µM) and the ED50 (Mus musculus) was 3.5 mg/kg. The MIC (Staphylococcus aureus [11]) was 8 µg/mL (≈ 5.78 µM).

C[C@@H](c1ccccc1)[C@@H]1NC(=O)CNC(=O)[C@H](CO)NC(=O)[C@@H]([C@@H](O)[C@@H]2CNC(N)N2[C@H]2O[C@H](CO)[C@@H](O)[C@H](O)[C@@H]2O)NC(=O)[C@H]([C@@H](O)[C@@H]2CNC(N)N2)NC(=O)[C@@H](Cc2ccc(O[C@H]3O[C@H](COC(=O)Cc4ccccc4)[C@@H](O[C@H]4O[C@H](CO)[C@@H](O)[C@H](O)[C@@H]4O)[C@H](O)[C@@H]3O)cc2)NC1=O (some centres not stated) was tested, and the MIC (Escherichia coli) was “No activity”, the MIC (Enterococcus faecalis [12]) was 64 µg/mL (≈ 45.2 µM) and the MIC (Staphylococcus aureus [13]) was 16 µg/mL (≈ 11.3 µM).

In the case of CCCCCCC(=O)OC[C@H]1O[C@H](Oc2ccc(C[C@H]3NC(=O)[C@H]([C@@H](C)c4ccccc4)NC(=O)CNC(=O)[C@H](CO)NC(=O)[C@@H]([C@@H](O)[C@@H]4CNC(N)N4[C@H]4O[C@H](CO)[C@@H](O)[C@H](O)[C@@H]4O)NC(=O)[C@H]([C@@H](O)[C@@H]4CNC(N)N4)NC3=O)cc2)[C@@H](O)[C@@H](O)[C@@H]1O[C@H]1O[C@H](CO)[C@@H](O)[C@H](O)[C@@H]1O (some centres not stated), the MIC (Enterococcus faecalis [14]) is reported as 16 µg/mL (≈ 11.3 µM), the MIC (Escherichia coli) is reported as “No activity” and the MIC (Staphylococcus aureus [15]) is reported as 2 µg/mL (≈ 1.42 µM).

With C[C@@H](c1ccccc1)[C@@H]1NC(=O)CNC(=O)[C@H](CO)NC(=O)[C@@H]([C@@H](O)[C@@H]2CNC(N)N2[C@H]2O[C@H](CO)[C@@H](O)[C@H](O)[C@@H]2O)NC(=O)[C@H]([C@@H](O)[C@@H]2CNC(N)N2)NC(=O)[C@@H](Cc2ccc(O[C@H]3O[C@H](CO)[C@@H](O[C@H]4O[C@H](COC(=O)Cc5ccccc5)[C@@H](O)[C@H](O)[C@@H]4O)[C@H](O)[C@@H]3O)cc2)NC1=O (some centres not stated) the MIC (Escherichia coli) was “No activity”, the MIC (Enterococcus faecalis [8]) was 16 µg/mL (≈ 11.3 µM) and the MIC (Staphylococcus aureus [16]) was 4 µg/mL (≈ 2.82 µM).
